Experimental data: ChEMBL document CHEMBL4477213, “Discovery and Optimization of Quinazolinone-pyrrolopyrrolones as Potent and Orally Bioavailable Pan-Pim Kinase Inhibitors” (J Med Chem, 2016)

Assays:
[1] = Oral bioavailability in rat at 5 mg/kg; format: ADME, organism-based; details: in vivo
[2] = Oral bioavailability in dog; format: ADME, organism-based, Canis lupus familiaris; details: in vivo
[3] = target: T1, Mitogen-activated protein kinase kinase kinase 19 (Homo sapiens) (UniProt Q56UN5); assay: Inhibition of human YSK4 (1019 to 1328 residues) expressed in mammalian system assessed as remaining enzyme activity at 1 uM by KINOMEScan assay relative to control
T1 sequence (whole entry): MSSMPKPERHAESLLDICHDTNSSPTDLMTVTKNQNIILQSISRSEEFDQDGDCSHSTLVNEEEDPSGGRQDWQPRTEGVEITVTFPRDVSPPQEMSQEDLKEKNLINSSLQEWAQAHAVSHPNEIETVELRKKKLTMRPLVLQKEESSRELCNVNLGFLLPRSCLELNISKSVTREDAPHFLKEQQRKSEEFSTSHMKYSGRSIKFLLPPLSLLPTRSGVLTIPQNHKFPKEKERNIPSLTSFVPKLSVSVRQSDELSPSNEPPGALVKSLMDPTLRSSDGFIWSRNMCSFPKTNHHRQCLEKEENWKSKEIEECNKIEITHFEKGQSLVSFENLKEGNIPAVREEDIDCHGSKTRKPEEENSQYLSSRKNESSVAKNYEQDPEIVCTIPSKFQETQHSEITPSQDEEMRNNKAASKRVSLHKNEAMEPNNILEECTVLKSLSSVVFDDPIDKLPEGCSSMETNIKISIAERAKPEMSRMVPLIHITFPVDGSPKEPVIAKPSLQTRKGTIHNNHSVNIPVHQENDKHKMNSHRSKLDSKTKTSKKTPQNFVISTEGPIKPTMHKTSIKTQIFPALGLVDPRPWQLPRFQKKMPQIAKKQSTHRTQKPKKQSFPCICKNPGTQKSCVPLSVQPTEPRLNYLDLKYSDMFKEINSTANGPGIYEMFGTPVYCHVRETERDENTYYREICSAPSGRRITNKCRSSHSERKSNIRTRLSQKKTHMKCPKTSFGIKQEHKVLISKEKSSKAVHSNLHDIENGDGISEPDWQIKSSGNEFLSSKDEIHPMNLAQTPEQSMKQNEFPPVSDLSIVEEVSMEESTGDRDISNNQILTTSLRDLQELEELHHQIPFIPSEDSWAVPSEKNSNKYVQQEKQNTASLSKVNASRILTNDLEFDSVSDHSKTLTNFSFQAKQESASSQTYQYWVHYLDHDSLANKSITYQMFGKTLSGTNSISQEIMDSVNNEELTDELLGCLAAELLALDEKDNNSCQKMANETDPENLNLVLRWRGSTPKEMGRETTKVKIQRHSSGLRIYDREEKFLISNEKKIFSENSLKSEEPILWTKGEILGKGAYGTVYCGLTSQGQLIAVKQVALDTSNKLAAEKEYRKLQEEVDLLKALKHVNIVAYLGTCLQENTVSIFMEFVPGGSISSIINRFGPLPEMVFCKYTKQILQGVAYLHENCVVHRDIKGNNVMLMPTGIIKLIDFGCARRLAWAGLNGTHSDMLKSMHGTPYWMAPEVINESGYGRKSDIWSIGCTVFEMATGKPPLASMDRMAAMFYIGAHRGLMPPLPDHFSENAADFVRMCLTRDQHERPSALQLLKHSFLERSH

[4] = target: Casein kinase II subunit alpha (Homo sapiens) (UniProt P68400); assay: Inhibition of full length human CSNK2A1 expressed in mammalian system assessed as remaining enzyme activity at 1 uM by KINOMEScan assay relative to control
[5] = tested on: Mus musculus; assay: In vivo inhibition of pan Pim in SCID-bg mouse xenografted with human KMS-12-BM cells assessed as phosphorylation of BAD peptide at Serine 112 residue at 25 mg/kg, po qd measured at 4 hrs post dose relative to control; format: functional; design: scale not given: the % may be the effect or the level left
[6] = tested on: Mus musculus; assay: In vivo inhibition of pan Pim in SCID-bg mouse xenografted with human KMS-12-BM cells assessed as phosphorylation of BAD peptide at Serine 112 residue at 100 mg/kg, po qd measured at 4 hrs post dose relative to control; format: functional; design: scale not given: the % may be the effect or the level left
[7] = tested on: Mus musculus; assay: In vivo inhibition of pan Pim in SCID-bg mouse xenografted with human KMS-12-BM cells assessed as phosphorylation of BAD peptide at Serine 112 residue at 25 mg/kg, po qd measured at 8 hrs post dose relative to control; format: functional; design: scale not given: the % may be the effect or the level left
[8] = tested on: Mus musculus; assay: In vivo inhibition of pan Pim in SCID-bg mouse xenografted with human KMS-12-BM cells assessed as phosphorylation of BAD peptide at Serine 112 residue at 10 mg/kg, po qd measured at 12 hrs post dose relative to control; format: functional; design: scale not given: the % may be the effect or the level left
[9] = tested on: Mus musculus; assay: In vivo inhibition of pan Pim in SCID-bg mouse xenografted with human KMS-12-BM cells assessed as phosphorylation of BAD peptide at Serine 112 residue at 50 mg/kg, po qd measured at 12 hrs post dose relative to control; format: functional; design: scale not given: the % may be the effect or the level left
[10] = tested on: Mus musculus; assay: In vivo inhibition of pan Pim in SCID-bg mouse xenografted with human KMS-12-BM cells assessed as phosphorylation of BAD peptide at Serine 112 residue at 10 mg/kg, po qd measured at 24 hrs post dose relative to control; format: functional; design: scale not given: the % may be the effect or the level left
[11] = tested on: Mus musculus; assay: In vivo inhibition of pan Pim in SCID-bg mouse xenografted with human KMS-12-BM cells assessed as phosphorylation of BAD peptide at Serine 112 residue at 25 mg/kg, po qd measured at 24 hrs post dose relative to control; format: functional; design: scale not given: the % may be the effect or the level left
[12] = tested on: Mus musculus; assay: In vivo inhibition of pan Pim in SCID-bg mouse xenografted with human KMS-12-BM cells assessed as phosphorylation of BAD peptide at Serine 112 residue at 50 mg/kg, po qd measured at 24 hrs post dose relative to control; format: functional; design: scale not given: the % may be the effect or the level left

Chain of Casein kinase II subunit alpha (Homo sapiens) (P68400 whole entry, looked up): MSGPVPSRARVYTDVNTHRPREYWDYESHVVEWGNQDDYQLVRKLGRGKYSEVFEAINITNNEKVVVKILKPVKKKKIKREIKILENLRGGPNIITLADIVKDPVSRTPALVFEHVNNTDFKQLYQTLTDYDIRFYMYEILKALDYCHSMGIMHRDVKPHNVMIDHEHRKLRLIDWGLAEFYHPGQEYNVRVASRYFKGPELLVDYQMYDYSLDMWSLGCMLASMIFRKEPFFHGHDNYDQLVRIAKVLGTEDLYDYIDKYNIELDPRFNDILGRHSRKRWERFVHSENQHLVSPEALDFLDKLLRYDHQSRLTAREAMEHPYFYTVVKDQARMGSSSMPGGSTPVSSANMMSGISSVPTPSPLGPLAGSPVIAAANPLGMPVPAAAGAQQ

bioavailability [1]: 39%
bioavailability [2]: 44%
Activity [3]: 0.4%
Activity [4]: 3.5%
Structure (SMILES): C[C@H]1NC(=O)c2cc(-c3cccc4c(=O)n(C)c(NC(C)(C)C)nc34)[nH]c21
Activity [5]: 60%
Activity [6]: 63%
Activity [7]: 60%
Activity [8]: 34%
Activity [9]: 65%
Activity [10]: 0%
Activity [11]: 0%
Activity [12]: 10%
